Assay [1] deals with T1, human BRD4 bromodomain II (Homo sapiens, UniProt O60885).
T1 construct: human BRD4 bromodomain II [based on Genbank NM_058243, residues 349-460]; host or cells: E. coli
Briefly: Bromodomain binding assay (AlphaScreen), BRD4 BDII. An outline of the steps:
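Read-out is AlphaScreen signal (ex 680 nm, em 520-620 nm) from streptavidin donor beads on a biotinylated acetylated histone H4 (aa 1-21) peptide and nickel acceptor beads on the His6-tagged bromodomain. IC50 values come from curve fits of percentage peptide binding against compound concentration.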

The subject of assay [2] is human SKM-1 acute myeloid leukemia cells. Kind of assay: SKM-1 antiproliferation cell-based assay (ATPlite). The conditions noted are these: Homo sapiens. The essentials:
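Log-phase cells in RPMI 1640/15% FBS were seeded at 34722 cells/mL and exposed for 4 days to nine-concentration DMSO serial dilutions in triplicate. Viability was read as ATP luminescence (ATPlite 1step), and IC50 values came from variable-slope non-linear regression.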
Background: Cellular ATP, detected with luciferase, serves as a proxy for viable cell number.

The mark [3] stands for this setting: AlphaScreen assay, Table C2, read-out: BRD4 BDII IC50.
The mark [4] stands for this setting: SKM-1, 96 h, SKM-1 antiproliferation assay, 4 days, Table C2.
Where [5] appears, read: BRD4 BDII AlphaScreen assay, read-out: BRD4 BD2 IC50.
The mark [6] stands for this setting: SKM-1, SKM-1 antiproliferation assay.

Where two headings read alike, the source gives them in different places. Some results are limits rather than exact numbers.

With `CC(=O)NC1(c2cccc(-c3cc(F)cc(-c4ccc(-n5ccn(C)c5=O)c(Cl)c4)c3O)c2)CC1` [Example 764, N-(1-(3″-chloro-5′-fluoro-2′-hydroxy-4″-(3-methyl-2-oxo-2,3-dihydro-1H-imidazol-1-yl)-[1,1′:3′,1″-terphenyl]-3-yl)cyclopropyl)acetamide], in assay [1] (setting [3]), the IC50 was 1 to 10 nM. The same molecule had a GI50 in assay [2] (setting [4]) of 300 to 3000 nM.

Turning to `Cn1ccn(-c2ccc(-c3cc(F)cc(-c4cccc(N5CCN(C(C)(C)C)CC5)c4)c3O)nc2)c1=O` [Example 944, 1-(6-(3′-(4-(tert-butyl)piperazin-1-yl)-5-fluoro-2-hydroxy-[1,1′-biphenyl]-3-yl)pyridin-3-yl)-3-methyl-1H-imidazol-2(3H)-one], the concentration for half-maximal inhibition (IC50) in assay [1] (setting [5]) is above 100 nM. The molecule also yielded a GI50 in assay [2] (setting [6]) of 300 to 3000 nM.

`CC(=O)Nc1ccc(-c2cc(C)nc(-c3cccc(N4CCN(C(C)(C)C)CC4)c3)c2O)cc1Cl` [Example 1007, N-(4-(2-(3-(4-(tert-butyl)piperazin-1-yl)phenyl)-3-hydroxy-6-methylpyridin-4-yl)-2-chlorophenyl)acetamide]: in assay [1] (setting [5]), the IC50 was in the range of 1 to 10 nM. Moreover, the GI50 in assay [2] (setting [6]) fell in the range of 0.3 to 30 nM.

In the case of `COc1ncc(-c2cc(F)cc(-c3ccc(-n4ccn(C)c4=O)c(Cl)c3)c2O)cc1N1CCCN(C(C)(C)C)CC1` [Example 853, 1-(3′-(5-(4-(tert-Butyl)-1,4-diazepan-1-yl)-6-methoxypyridin-3-yl)-3-chloro-5′-fluoro-2′-hydroxy-[1,1′-biphenyl]-4-yl)-3-methyl-1H-imidazol-2(3H)-one], the IC50 in assay [1] (setting [5]) fell in the range of 0.01 to 1 nM. The molecule also came in with a GI50 in assay [2] (setting [6]) of 0.3 to 30 nM.

For `Cc1ncc(-c2cc(F)cc(-c3ccc(-n4ccn(C)c4=O)c(Cl)c3)c2O)cc1N1CCN(C(C)(C)C)CC1` [Example 791, 1-(3′-(5-(4-(tert-butyl)piperazin-1-yl)-6-methylpyridin-3-yl)-3-chloro-5′-fluoro-2′-hydroxy-[1,1′-biphenyl]-4-yl)-3-methyl-1,3-dihydro-2H-imidazol-2-one], the IC50 in assay [1] (setting [3]) was 0.01 to 1 nM. This molecule also came in with a GI50 in assay [2] (setting [4]) of 0.3 to 30 nM.

Consider `Cc1cc(-c2ccc(-n3ccn(C)c3=O)c(Cl)c2)c(O)c(-c2cc(F)c(F)c(N3CCN(C(C)(C)C)CC3)c2)n1` [Example 1026, 1-(4-(2-(3-(4-(tert-butyl)piperazin-1-yl)-4,5-difluorophenyl)-3-hydroxy-6-methylpyridin-4-yl)-2-chlorophenyl)-3-methyl-1H-imidazol-2(3H)-one], for which the concentration for half-maximal inhibition (IC50) in assay [1] (setting [5]) fell in the range of 0.01 to 1 nM. In assay [2] (setting [6]), this molecule came in with a GI50 of 0.3 to 30 nM.

For the molecule `CC(C)N1CCN(c2cc(-c3cc(F)cc(-c4ccc(-n5ccn(C)c5=O)c(Cl)c4)c3O)cn3ccnc23)CC1` [Example 670, 1-(3-chloro-5′-fluoro-2′-hydroxy-3′-(8-(4-isopropylpiperazin-1-yl)imidazo[1,2-a]pyridin-6-yl)-[1,1′-biphenyl]-4-yl)-3-methyl-1H-imidazol-2(3H)-one], the IC50 in assay [1] (setting [3]) is 0.01 to 1 nM. Besides, in assay [2] (setting [4]), the GI50 is 0.3 to 30 nM.

Take `Cc1ncc(-c2cc(F)cc(-c3ccc(N4CCN(C)C4=O)c(Cl)c3)c2O)cc1N1CCNCC1` [Example 388, 1-(3-chloro-5′-fluoro-2′-hydroxy-3′-(6-methyl-5-(piperazin-1-yl)pyridin-3-yl)-[1,1′-biphenyl]-4-yl)-3-methylimidazolidin-2-one]: in assay [1] (setting [3]), the IC50 fell in the range of 1 to 10 nM. In assay [2] (setting [4]), this molecule showed a GI50 of 30 to 300 nM.

In the case of `Cn1ccn(-c2ccc(-c3cc(F)cc(-c4ccnc(N5CCCNCC5)c4)c3O)cc2Cl)c1=O` [Example 623, 1-(3′-(2-(1,4-diazepan-1-yl)pyridin-4-yl)-3-chloro-5′-fluoro-2′-hydroxy-[1,1′-biphenyl]-4-yl)-3-methyl-1H-imidazol-2(3H)-one], the 50% inhibitory concentration (IC50) in assay [1] (setting [3]) was 0.01 to 1 nM. The molecule also came in with a GI50 in assay [2] (setting [4]) of 0.3 to 30 nM.

As to `Cc1ncc(-c2cc(F)cc(-c3ccc(-n4ccn(C)c4=O)c(Cl)c3)c2O)cc1N1CCN(C(C)C)CC1` [Example 722, 1-(3-chloro-5′-fluoro-2′-hydroxy-3′-(5-(4-isopropylpiperazin-1-yl)-6-methylpyridin-3-yl)-[1,1′-biphenyl]-4-yl)-3-methyl-1H-imidazol-2(3H)-one], the IC50 in assay [1] (setting [3]) lay within 0.01 to 1 nM. This molecule gave a GI50 in assay [2] (setting [4]) of 0.3 to 30 nM.

As to `Cn1cc(-c2cc(F)cc(-c3ccc(-n4ccn(C)c4=O)c(Cl)c3)c2O)cc(N2CCC(N)CC2)c1=O` [Example 427, 3-(4-aminopiperidin-1-yl)-5-(3′-chloro-5-fluoro-2-hydroxy-4′-(3-methyl-2-oxo-2,3-dihydro-1H-imidazol-1-yl)-[1,1′-biphenyl]-3-yl)-1-methylpyridin-2(1H)-one], the IC50 in assay [1] (setting [3]) was in the range of 1 to 10 nM. Moreover, in assay [2] (setting [4]), the GI50 fell in the range of 300 to 3000 nM.

With `CC(=O)Nc1ccc(-c2cccc(-c3cncc(N4CCN[C@H](C)C4)c3)c2O)cc1Cl` [Example 259, (R)-N-(3-chloro-2′-hydroxy-3′-(5-(3-methylpiperazin-1-yl)pyridin-3-yl)-[1,1′-biphenyl]-4-yl)acetamide], in assay [1] (setting [3]), the IC50 fell in the range of 1 to 10 nM. The same molecule gave a GI50 in assay [2] (setting [4]) of 30 to 300 nM.

With `C[C@@H]1CN(c2cncc(-c3cccc(-c4ccc(N5CCCC5=O)c(F)c4)c3O)c2)CCN1` [Example 264, (R)-1-(3-fluoro-2′-hydroxy-3′-(5-(3-methylpiperazin-1-yl)pyridin-3-yl)-[1,1′-biphenyl]-4-yl)pyrrolidin-2-one], in assay [1] (setting [3]), the concentration for half-maximal inhibition (IC50) lay in the range of 1 to 10 nM. Further, the GI50 in assay [2] (setting [4]) was 30 to 300 nM.

In the case of `COc1ncc(-c2nc(C)cc(-c3ccc(-n4ccn(C)c4=O)c(C)c3)c2O)cc1N1CCN(C(C)(C)C)CC1` [Example 1015, 1-(4-(5′-(4-(tert-butyl)piperazin-1-yl)-3-hydroxy-6′-methoxy-6-methyl-[2,3′-bipyridin]-4-yl)-2-methylphenyl)-3-methyl-1H-imidazol-2(3H)-one], the IC50 in assay [1] (setting [5]) was 1 to 10 nM. The molecule further yielded a GI50 in assay [2] (setting [6]) of 0.3 to 30 nM.

With `O=c1[nH]c2ccc(-c3cc(F)cc(-c4ccnc(N5CCNCC5)c4)c3O)cc2[nH]1` [Example 431, 5-(5-fluoro-2-hydroxy-3-(2-(piperazin-1-yl)pyridin-4-yl)phenyl)-1H-benzo[d]imidazol-2(3H)-one], the IC50 in assay [1] (setting [3]) is above 100 nM. The same molecule displayed a GI50 in assay [2] (setting [4]) of at least 3000 nM.

With `Cn1ccn(-c2c(OC3CC3)ccc(-c3cc(F)cc(-c4cccc(N5CCN(C(C)(C)C)CC5)c4)c3O)c2Cl)c1=O` [Example 931, 1-(3″-(4-(tert-butyl)piperazin-1-yl)-2-chloro-4-cyclopropoxy-5′-fluoro-2′-hydroxy-[1,1′:3′,1″-terphenyl]-3-yl)-3-methyl-1,3-dihydro-2H-imidazol-2-one], the IC50 in assay [1] (setting [5]) was above 100 nM. This molecule also returned a GI50 in assay [2] (setting [6]) of 300 to 3000 nM.

As to `CC(C)COc1cc(-c2cc(F)cc(-c3cccc(N4CCN(C(C)(C)C)CC4)c3)c2O)cc(Cl)c1-n1ccn(C)c1=O` [Example 924, 1-(3″-(4-(tert-Butyl)piperazin-1-yl)-3-chloro-5′-fluoro-2′-hydroxy-5-isobutoxy-[1,1′:3′,1″-terphenyl]-4-yl)-3-methyl-1H-imidazol-2(3H)-one], the IC50 in assay [1] (setting [5]) lay in the range of 10 to 100 nM. The same molecule yielded a GI50 in assay [2] (setting [6]) of 30 to 300 nM.

For the molecule `Cn1ccn(-c2ccc(-c3cc(F)cc(-c4ccnc(N5CCN(CC6CCC6)CC5)c4)c3O)cc2Cl)c1=O` [Example 646, 1-(3-chloro-3′-(2-(4-(cyclobutylmethyl)piperazin-1-yl)pyridin-4-yl)-5′-fluoro-2′-hydroxy-[1,1′-biphenyl]-4-yl)-3-methyl-1H-imidazol-2(3H)-one], the IC50 in assay [1] (setting [3]) fell in the range of 0.01 to 1 nM. Moreover, the GI50 in assay [2] (setting [4]) fell in the range of 0.3 to 30 nM.

Take `Cn1ccn(-c2ccc(-c3cc(F)cc(-c4cncc(N5CCC(C)(N)C5)c4)c3O)cc2Cl)c1=O` (stereo not shown) [Example 745, 1-(3′-(5-(3-amino-3-methylpyrrolidin-1-yl)pyridin-3-yl)-3-chloro-5′-fluoro-2′-hydroxy-[1,1′-biphenyl]-4-yl)-3-methyl-1H-imidazol-2(3H)-one]: the IC50 in assay [1] (setting [3]) was 0.01 to 1 nM. The GI50 in assay [2] (setting [4]) is 0.3 to 30 nM.

`C[C@@H]1CN(c2cncc(-c3cc(Cl)cc(-c4ccc(-n5ccn(C)c5=O)c(Cl)c4)c3O)c2)CCN1` [Example 529, (R)-1-(3,5′-dichloro-2′-hydroxy-3′-(5-(3-methylpiperazin-1-yl)pyridin-3-yl)-[1,1′-biphenyl]-4-yl)-3-methyl-1H-imidazol-2(3H)-one]: the IC50 in assay [1] (setting [3]) was 1 to 10 nM. This molecule displayed a GI50 in assay [2] (setting [4]) of 0.3 to 30 nM.

On to `Cn1ccn(-c2ccc(-c3cc(F)cc(-c4ccnc(N5CCNC(CCO)C5)c4)c3O)cc2Cl)c1=O` (stereo not shown) [Example 640, 1-(3-chloro-5′-fluoro-2′-hydroxy-3′-(2-(3-(2-hydroxyethyl)piperazin-1-yl)pyridin-4-yl)-[1,1′-biphenyl]-4-yl)-3-methyl-1H-imidazol-2(3H)-one], for which, in assay [1] (setting [3]), the IC50 lay in the range of 0.01 to 1 nM. In assay [2] (setting [4]), this molecule returned a GI50 of 0.3 to 30 nM.

On to `Cn1ccn(-c2ccc(-c3cc(F)cc(-c4ccnc(N5CCCC5)c4)c3O)cc2Cl)c1=O` [Example 613, 1-(3-chloro-5′-fluoro-2′-hydroxy-3′-(2-(pyrrolidin-1-yl)pyridin-4-yl)-[1,1′-biphenyl]-4-yl)-3-methyl-1H-imidazol-2(3H)-one], for which the IC50 in assay [1] (setting [3]) is 1 to 10 nM. The same molecule registered a GI50 in assay [2] (setting [4]) of 30 to 300 nM.

In the case of `Cc1cc(-c2ccc(-n3ccn(C)c3=O)c(Cl)c2)c(O)c(-c2cnc(C)c(N3CCN(C(C)(C)C)CC3)c2)n1` [Example 961, 1-(4-(5′-(4-(tert-butyl)piperazin-1-yl)-3-hydroxy-6,6′-dimethyl-[2,3′-bipyridin]-4-yl)-2-chlorophenyl)-3-methyl-1H-imidazol-2(3H)-one], the IC50 in assay [1] (setting [5]) is 1 to 10 nM. This molecule also came in with a GI50 in assay [2] (setting [6]) of 0.3 to 30 nM.

The IC50 is the concentration that gives 50% inhibition. As a reminder, the GI50 is the concentration at which growth is held to half of that of the control. Lower therefore signals more potent growth inhibition.

Values taken from patent publication US20250179059A1 (The Regents of the University of California, priority 2021, published 2025).
